Source: US20220202882A1, “EFFECT OF COMBINATION OF BIFIDOBACTERIUM AND BERBERINE ON PRE-DIABETES AND TYPE 2 DIABETES” (The Fourth Military Medical University, priority 2018, published 2022)
Structures can show the parent of a compound that is named as a salt.

Test system: pre-diabetic and type 2 diabetes mellitus patients
Assay: Clinical trial: glycosylated hemoglobin (HbA1c)
Type: in vivo, human
Conditions: for Effect on glycosylated hemoglobin level (in words) / Post-treatment HbA1c - pre-treatment HbA1c, mean value / Post-treatment HbA1c <7.0% with no hypoglycemia, Yes-N (%) / Post-treatment HbA1c <7.0%, Yes-N (%): 16 weeks of treatment; for Effect on glycosylated hemoglobin level (in words): Kruskal-Wilcox test; for Post-treatment HbA1c, mean value: after 16 weeks of treatment; for Pre-treatment HbA1c, mean value: baseline before treatment
Protocol: From June 2015 to October 2018, a double-blind, randomized, and parallel-controlled trial, studying the effects of the combined use of Bifidobacterium and berberine on pre-diabetic and type 2 diabetes mellitus patients, was conducted in 10 research centers in Xi'an, Yan'an and Shangluo of Shaanxi province, etc., including the First Affiliated Hospital of the Fourth Military Medical University. The trial included an enrollment stage of 2 weeks and a treatment stage of 16 weeks. After passing the first visit 1 (see V1 in Table 1), the subjects entered the enrollment stage, i.e., 2 weeks of lifestyle intervention, followed by a re-screening (see V2 in Table 1). The subjects were subjected to a 16-week course of treatment after passing the screening. See Table 1 for the detailed screening parameters. After the enrollment stage, the baseline data of the 300 successfully enrolled subjects were collected. Meanwhile, the subjects started to receive lifestyle guidance, and were randomly divided into four groups for 16 weeks of treatments. 1) Bifidobacterium group: the subjects were administered with Bifidobacterium capsules (Livzon Pharmaceutical Group Inc., batch no.: 20141013), 0.35 g/capsule, each capsule containing 50,000,000 viable bacteria (Bifidobacterium adolescentis DM8504), 2 capsules/time, 2 times/day, plus berberine placebo tablets (Northeast Pharma Group Shenyang First Pharma Co., Ltd., Lot no.: 20150101, containing 80.2% microcrystalline cellulose, 9.4% pregelatinized starch, 6.4% sodium carboxymethyl starch, 1% magnesium stearate, and 3% copovidone), 0.1 g/tablet, 5 tablets/time, 2 times/day. 2) Berberine group: the subjects were administered with berberine tablets (Northeast Pharma Group Shenyang First Pharma Co., Ltd., Lot no.: 130917, each tablet weighted 0.165 g and contained 0.1 g active berberine ingredient (berberine hydrochloride), with the same excipients as the placebo tablets), 5 tablets/time, 2 times/day, plus Bifidobacterium placebo capsules (Livzon Pharmaceutical Group Inc., Lot no.: 141001, specifically containing 0.348 g spray-dried lactose, and 0.002 g magnesium stearate), 0.35 g/capsule, 2 capsules/time, 2 times/day. 3) Combination Group: the subjects were administered with Bifidobacterium capsules, 0.35 g/capsule, each capsule containing 50,000,000 viable bacteria (B. adolescentis DM8504), 2 capsules/time, 2 times/day, plus berberine tablets, 0.1 g/tablet, each tablet containing 0.1 g active berberine ingredient (berberine hydrochloride), 5 tablets/time, 2 times/day. 4) Control group: the subjects were administered with Bifidobacteria placebo capsules, 0.35 g/capsule, 2 capsules/time, 2 times/day, plus berberine placebo tablets, 0.1 g/tablet, 5 tablets/time, 2 times/day. Bifidobacterium capsules were taken after meals and berberine tablets were taken before meals. Before blood collection, the subjects were kept still for 5 min. For serum insulin assays, 5 ml of whole blood was collected at fasting, and 30 min and 2 h post glucose intake, and then subjected to centrifugation […]. The obtained serum was collected in the cryogenic vials. For the glycosylated hemoglobin (HbA1c) test, 2 ml of whole blood was collected and placed in EDTA-containing tubes. For the GLP-1 and glucagon measurements, 5 ml of whole blood was collected in vacutainers containing EDTA and aprotinin at fasting, and 30 min and 2 h post meals, subjected to centrifugation, and the obtained serum was collected in cryogenic vials and stored at −20° C. Soybean-sized stool sample was placed in a dry and sterile collection tube, and sent to the detection center within 24 h for cryopreservation. […]

Compound | Effect on glycosylated hemoglobin level (in words) | Post-treatment HbA1c - pre-treatment HbA1c, mean value (FAS) | Post-treatment HbA1c <7.0% with no hypoglycemia, Yes-N (%) (FAS) | Post-treatment HbA1c <7.0%, Yes-N (%) (FAS) | Post-treatment HbA1c, mean value (FAS) | Pre-treatment HbA1c, mean value (FAS) | Post-treatment HbA1c <7.0% with no hypoglycemia, Yes-N (%) (PPS) | Post-treatment HbA1c <7.0%, Yes-N (%) (PPS)
COc1ccc2cc3[n+](cc2c1OC)CCc1cc2c(cc1-3)OCO2 [Berberine, berberine hydrochloride] | not significantly different from that of the combined use of berberine and Bifidobacterium | −0.1170% | 40(81.63) N (%) | 48(97.96) N (%) | 6.0800% | 6.1900% | 28(75.68) N (%) | 36(97.30) N (%)
Bifidobacterium | no glycosylated hemoglobin lowing effect | −0.0545% | 76(76.00) N (%) | 88(88.00) N (%) | 6.1500% | 6.1900% | 61(73.49) N (%) | 71(85.54) N (%)
